In PMC11480411, “Mucosal sugars delineate pyrazine vs pyrazinone autoinducer signaling in Klebsiella oxytoca” (Nature Communications, 2024):
Values joined by “and” are separate entries in the source; they are usually repeats but may differ in a detail not shown here. Equal entries are not always repeated.

Legend:
Type in all cases: cell-based
[1] = target: T1, VIPR2 (Homo sapiens, UniProt P41587); assay: PRESTO-Tango GPCR screen; details: 100 µM
T1 construct: purchased PRESTO-Tango GPCR kit (Roth lab / Addgene)
T1 sequence (P41587 24-438): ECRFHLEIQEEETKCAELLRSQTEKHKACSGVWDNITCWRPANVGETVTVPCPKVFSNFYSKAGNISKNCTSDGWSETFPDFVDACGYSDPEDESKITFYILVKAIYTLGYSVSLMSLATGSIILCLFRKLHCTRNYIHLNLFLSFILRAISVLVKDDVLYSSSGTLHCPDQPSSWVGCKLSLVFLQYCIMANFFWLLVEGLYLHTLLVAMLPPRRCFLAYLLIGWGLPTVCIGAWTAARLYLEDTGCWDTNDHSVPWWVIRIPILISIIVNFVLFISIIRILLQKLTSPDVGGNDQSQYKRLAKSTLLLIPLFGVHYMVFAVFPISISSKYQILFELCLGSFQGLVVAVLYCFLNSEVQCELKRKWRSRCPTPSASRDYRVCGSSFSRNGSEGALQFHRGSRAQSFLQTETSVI
Outline: (§1)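 HTLA cells (HEK293 stably expressing β-arrestin-TEV and tTA-luciferase) transiently transfected with GPCR-Tango plasmids, then exposed to compound at 100 μM final for 20 h. Luminescence read after Bright-Glo; activation fold = RLU over PBS control. Dose-response spanned 10^−4 M to 10^−15 M.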

[2] = target: T2, GPR78 (Homo sapiens, UniProt Q96P69); assay: PRESTO-Tango GPCR screen; details: 100 µM
T2 construct: purchased PRESTO-Tango GPCR kit (Roth lab / Addgene)
Outline: as §1

[3] = target: T3, PTH1R (Homo sapiens, UniProt Q03431); assay: PRESTO-Tango GPCR screen; details: 100 µM
T3 construct: purchased PRESTO-Tango GPCR kit (Roth lab / Addgene)
T3 sequence (Q03431 27-593): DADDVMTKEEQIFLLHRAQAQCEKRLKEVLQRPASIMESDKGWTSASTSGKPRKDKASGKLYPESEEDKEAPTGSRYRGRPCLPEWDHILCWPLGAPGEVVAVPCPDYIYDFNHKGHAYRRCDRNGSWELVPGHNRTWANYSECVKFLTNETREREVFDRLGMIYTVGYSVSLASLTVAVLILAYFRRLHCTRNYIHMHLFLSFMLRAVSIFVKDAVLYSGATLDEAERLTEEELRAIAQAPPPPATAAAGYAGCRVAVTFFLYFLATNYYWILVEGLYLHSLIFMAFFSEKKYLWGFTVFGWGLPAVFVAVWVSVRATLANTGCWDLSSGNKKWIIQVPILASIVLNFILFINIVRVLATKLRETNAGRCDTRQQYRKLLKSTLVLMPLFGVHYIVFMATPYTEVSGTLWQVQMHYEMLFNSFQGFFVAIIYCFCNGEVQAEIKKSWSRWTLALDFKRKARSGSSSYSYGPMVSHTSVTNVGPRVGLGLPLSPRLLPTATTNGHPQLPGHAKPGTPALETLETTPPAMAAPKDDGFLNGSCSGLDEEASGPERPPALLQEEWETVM
Outline: as §1

[4] = target: T4, F2RL3 (Homo sapiens, UniProt Q96RI0); assay: PRESTO-Tango GPCR screen; details: 100 µM
T4 construct: purchased PRESTO-Tango GPCR kit (Roth lab / Addgene)
Outline: as §1

[5] = target: T5, PTGER3 (Homo sapiens, UniProt P43115); assay: PRESTO-Tango GPCR screen; details: 100 µM
T5 construct: purchased PRESTO-Tango GPCR kit (Roth lab / Addgene)
Outline: as §1

[6] = target: T6, MRGPRX2 (Homo sapiens, UniProt Q96LB1); assay: PRESTO-Tango GPCR screen; details: 100 µM
T6 construct: purchased PRESTO-Tango GPCR kit (Roth lab / Addgene)
Outline: as §1

[7] = target: T7, F2RL1 (Homo sapiens, UniProt P55085); assay: PRESTO-Tango GPCR screen; details: 100 µM
T7 construct: purchased PRESTO-Tango GPCR kit (Roth lab / Addgene)
Outline: as §1

[8] = target: T8, HTR2C (Homo sapiens, UniProt P28335); assay: PRESTO-Tango GPCR screen; details: 100 µM
T8 construct: purchased PRESTO-Tango GPCR kit (Roth lab / Addgene)
T8 sequence (P28335 33-458): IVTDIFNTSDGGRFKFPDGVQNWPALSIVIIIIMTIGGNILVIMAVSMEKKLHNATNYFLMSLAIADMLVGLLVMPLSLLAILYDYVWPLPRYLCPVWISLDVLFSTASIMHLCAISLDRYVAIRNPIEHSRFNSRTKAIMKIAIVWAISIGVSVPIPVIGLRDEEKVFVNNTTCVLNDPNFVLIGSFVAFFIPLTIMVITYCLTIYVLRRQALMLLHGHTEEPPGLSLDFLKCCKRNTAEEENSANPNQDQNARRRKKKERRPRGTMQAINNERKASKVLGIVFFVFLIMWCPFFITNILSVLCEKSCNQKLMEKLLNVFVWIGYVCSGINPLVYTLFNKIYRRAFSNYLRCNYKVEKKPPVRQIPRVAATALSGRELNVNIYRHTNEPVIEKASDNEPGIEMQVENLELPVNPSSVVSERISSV
Outline: as §1

[9] = target: T9, HCA2 (Homo sapiens, UniProt Q8TDS4); assay: PRESTO-Tango GPCR screen; details: 100 µM
T9 construct: purchased PRESTO-Tango GPCR kit (Roth lab / Addgene)
T9 sequence (Q8TDS4 whole entry): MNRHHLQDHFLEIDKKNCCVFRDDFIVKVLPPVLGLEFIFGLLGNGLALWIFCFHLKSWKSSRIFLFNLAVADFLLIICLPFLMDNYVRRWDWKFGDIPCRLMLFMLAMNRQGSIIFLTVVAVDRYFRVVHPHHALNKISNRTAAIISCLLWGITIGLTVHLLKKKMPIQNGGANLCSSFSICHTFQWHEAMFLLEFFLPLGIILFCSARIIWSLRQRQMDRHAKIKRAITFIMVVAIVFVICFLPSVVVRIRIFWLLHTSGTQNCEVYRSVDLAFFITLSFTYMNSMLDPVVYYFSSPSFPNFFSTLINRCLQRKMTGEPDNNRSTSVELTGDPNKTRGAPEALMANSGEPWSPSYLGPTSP
Outline: as §1

[10] = target: T10, GPR31 (Homo sapiens, UniProt O00270); assay: PRESTO-Tango GPCR screen; details: 100 µM
T10 construct: purchased PRESTO-Tango GPCR kit (Roth lab / Addgene)
Outline: as §1

[11] = target: T11, GPR150 (Homo sapiens, UniProt Q8NGU9); assay: PRESTO-Tango GPCR screen; details: 100 µM
T11 construct: purchased PRESTO-Tango GPCR kit (Roth lab / Addgene)
Outline: as §1

[12] = target: T12, MRGPRF (Homo sapiens, UniProt Q96AM1); assay: PRESTO-Tango GPCR screen; details: 100 µM
T12 construct: purchased PRESTO-Tango GPCR kit (Roth lab / Addgene)
Outline: as §1

[13] = target: T13, MC2R (Homo sapiens, UniProt Q01718); assay: PRESTO-Tango GPCR screen; details: 100 µM
T13 construct: purchased PRESTO-Tango GPCR kit (Roth lab / Addgene)
Outline: as §1

[14] = target: T14, P2RY2 (Homo sapiens, UniProt P41231); assay: PRESTO-Tango GPCR screen; details: 100 µM
T14 construct: purchased PRESTO-Tango GPCR kit (Roth lab / Addgene)
T14 sequence (P41231 whole entry): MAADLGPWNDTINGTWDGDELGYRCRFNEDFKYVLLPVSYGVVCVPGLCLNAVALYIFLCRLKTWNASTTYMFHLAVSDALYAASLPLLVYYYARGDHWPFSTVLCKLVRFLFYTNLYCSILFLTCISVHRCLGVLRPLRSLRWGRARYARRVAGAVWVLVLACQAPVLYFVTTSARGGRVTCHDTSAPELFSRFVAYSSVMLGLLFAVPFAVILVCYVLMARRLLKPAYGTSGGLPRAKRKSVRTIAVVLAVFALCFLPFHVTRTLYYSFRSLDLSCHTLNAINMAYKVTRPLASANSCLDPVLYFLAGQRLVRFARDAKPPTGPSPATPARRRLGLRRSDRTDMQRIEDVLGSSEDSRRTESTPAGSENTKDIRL
Outline: as §1

[15] = target: T15, GPR64 (Homo sapiens, UniProt Q8IZP9); assay: PRESTO-Tango GPCR screen; details: 100 µM
T15 construct: purchased PRESTO-Tango GPCR kit (Roth lab / Addgene)
T15 sequence (Q8IZP9 38-1017): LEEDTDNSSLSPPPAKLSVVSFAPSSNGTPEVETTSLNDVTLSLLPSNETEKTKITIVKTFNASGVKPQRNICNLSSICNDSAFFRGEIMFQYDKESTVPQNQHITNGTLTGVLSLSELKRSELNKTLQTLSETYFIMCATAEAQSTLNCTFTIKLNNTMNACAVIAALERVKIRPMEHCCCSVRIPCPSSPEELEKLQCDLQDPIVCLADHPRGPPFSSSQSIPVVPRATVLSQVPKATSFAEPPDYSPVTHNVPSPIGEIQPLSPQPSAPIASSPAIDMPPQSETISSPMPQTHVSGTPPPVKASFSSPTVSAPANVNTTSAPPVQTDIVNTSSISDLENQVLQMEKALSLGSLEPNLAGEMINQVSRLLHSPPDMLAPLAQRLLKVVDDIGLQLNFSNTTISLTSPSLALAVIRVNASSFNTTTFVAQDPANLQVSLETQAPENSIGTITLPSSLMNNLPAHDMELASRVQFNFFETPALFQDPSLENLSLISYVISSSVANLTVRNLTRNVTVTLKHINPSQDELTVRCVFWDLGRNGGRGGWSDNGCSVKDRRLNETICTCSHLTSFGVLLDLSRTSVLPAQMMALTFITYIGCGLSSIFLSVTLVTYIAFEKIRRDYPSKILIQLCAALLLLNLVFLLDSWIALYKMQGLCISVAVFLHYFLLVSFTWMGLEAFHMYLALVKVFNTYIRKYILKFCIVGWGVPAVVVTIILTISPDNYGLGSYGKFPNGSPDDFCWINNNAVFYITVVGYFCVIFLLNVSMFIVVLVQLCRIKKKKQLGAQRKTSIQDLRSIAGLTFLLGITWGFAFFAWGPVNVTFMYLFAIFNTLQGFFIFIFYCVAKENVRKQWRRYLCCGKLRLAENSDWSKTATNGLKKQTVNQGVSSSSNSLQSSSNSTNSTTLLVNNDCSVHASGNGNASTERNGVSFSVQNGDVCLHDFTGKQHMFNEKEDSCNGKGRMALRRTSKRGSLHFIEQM
Outline: as §1

[16] = target: T16, PK2 (Homo sapiens, UniProt Q8NFJ6); assay: PRESTO-Tango GPCR screen; details: 100 µM
T16 construct: purchased PRESTO-Tango GPCR kit (Roth lab / Addgene)
T16 sequence (Q8NFJ6 whole entry): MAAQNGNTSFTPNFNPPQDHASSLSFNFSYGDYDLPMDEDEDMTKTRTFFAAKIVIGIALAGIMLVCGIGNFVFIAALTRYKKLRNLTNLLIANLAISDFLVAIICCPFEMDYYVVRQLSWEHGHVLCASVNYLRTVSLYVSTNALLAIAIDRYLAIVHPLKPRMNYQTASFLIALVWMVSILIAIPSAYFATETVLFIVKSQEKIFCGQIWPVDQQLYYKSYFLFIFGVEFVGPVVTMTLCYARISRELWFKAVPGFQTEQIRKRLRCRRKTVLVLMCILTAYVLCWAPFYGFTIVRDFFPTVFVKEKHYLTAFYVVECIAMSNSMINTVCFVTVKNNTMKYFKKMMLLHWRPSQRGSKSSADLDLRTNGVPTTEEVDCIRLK
Outline: as §1

[17] = target: T17, OXGR1 (Homo sapiens, UniProt Q96P68); assay: PRESTO-Tango GPCR screen; details: 100 µM
T17 construct: purchased PRESTO-Tango GPCR kit (Roth lab / Addgene)
Outline: as §1

[18] = target: T18, GPR35 (Homo sapiens, UniProt Q9HC97); assay: PRESTO-Tango GPCR screen; details: 100 µM
T18 construct: purchased PRESTO-Tango GPCR kit (Roth lab / Addgene)
Outline: as §1

[19] = target: T19, CX3C1 (Homo sapiens, UniProt P49238); assay: PRESTO-Tango GPCR screen; details: 100 µM
T19 construct: purchased PRESTO-Tango GPCR kit (Roth lab / Addgene)
Outline: as §1

[20] = target: T20, TAAR6 (Homo sapiens, UniProt Q96RI8); assay: PRESTO-Tango GPCR screen; details: 100 µM
T20 construct: purchased PRESTO-Tango GPCR kit (Roth lab / Addgene)
T20 sequence (Q96RI8 whole entry): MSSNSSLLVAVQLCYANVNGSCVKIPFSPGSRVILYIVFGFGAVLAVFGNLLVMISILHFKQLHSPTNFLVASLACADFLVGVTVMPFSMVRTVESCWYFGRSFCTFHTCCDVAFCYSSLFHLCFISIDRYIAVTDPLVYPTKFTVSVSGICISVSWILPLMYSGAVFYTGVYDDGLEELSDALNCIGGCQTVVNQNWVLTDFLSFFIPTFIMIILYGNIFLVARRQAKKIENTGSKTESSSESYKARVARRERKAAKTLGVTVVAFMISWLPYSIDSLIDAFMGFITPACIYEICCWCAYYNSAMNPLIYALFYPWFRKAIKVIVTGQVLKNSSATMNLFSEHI
Outline: as §1

[21] = target: T21, TAAR8 (Homo sapiens, UniProt Q969N4); assay: PRESTO-Tango GPCR screen; details: 100 µM
T21 construct: purchased PRESTO-Tango GPCR kit (Roth lab / Addgene)
Outline: as §1

[22] = target: T22, CRHR2 (Homo sapiens, UniProt Q13324); assay: PRESTO-Tango GPCR screen; details: 100 µM
T22 construct: purchased PRESTO-Tango GPCR kit (Roth lab / Addgene)
Outline: as §1

[23] = target: T23, AGTR2 (Homo sapiens, UniProt P50052); assay: PRESTO-Tango GPCR screen; details: 100 µM
T23 construct: purchased PRESTO-Tango GPCR kit (Roth lab / Addgene)
T23 sequence (P50052 whole entry): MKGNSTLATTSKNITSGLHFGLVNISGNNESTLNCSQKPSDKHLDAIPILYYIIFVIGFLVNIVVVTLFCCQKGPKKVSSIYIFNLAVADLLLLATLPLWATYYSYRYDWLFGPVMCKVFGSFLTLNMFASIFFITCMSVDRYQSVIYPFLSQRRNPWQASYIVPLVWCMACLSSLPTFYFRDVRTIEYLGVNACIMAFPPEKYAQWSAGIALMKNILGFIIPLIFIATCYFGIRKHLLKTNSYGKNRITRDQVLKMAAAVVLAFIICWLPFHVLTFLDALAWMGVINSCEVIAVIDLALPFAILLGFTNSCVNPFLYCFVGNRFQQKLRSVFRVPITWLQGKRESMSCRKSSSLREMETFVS
Outline: as §1

[24] = target: T24, GPR52 (Homo sapiens, UniProt Q9Y2T5); assay: PRESTO-Tango GPCR screen; details: 100 µM
T24 construct: purchased PRESTO-Tango GPCR kit (Roth lab / Addgene)
Outline: as §1

[25] = target: T25, HRH2 (Homo sapiens, UniProt P25021); assay: PRESTO-Tango GPCR screen and dose-response; details: for HRH2 dose-response raw reporter signal (Fig. 5b source data): replicate wells
T25 construct: expressed in transfected cells; host or cells: HTLA cells (HEK293 line stably expressing β-arrestin-TEV and tTA-Luciferase)
T25 sequence (P25021 whole entry): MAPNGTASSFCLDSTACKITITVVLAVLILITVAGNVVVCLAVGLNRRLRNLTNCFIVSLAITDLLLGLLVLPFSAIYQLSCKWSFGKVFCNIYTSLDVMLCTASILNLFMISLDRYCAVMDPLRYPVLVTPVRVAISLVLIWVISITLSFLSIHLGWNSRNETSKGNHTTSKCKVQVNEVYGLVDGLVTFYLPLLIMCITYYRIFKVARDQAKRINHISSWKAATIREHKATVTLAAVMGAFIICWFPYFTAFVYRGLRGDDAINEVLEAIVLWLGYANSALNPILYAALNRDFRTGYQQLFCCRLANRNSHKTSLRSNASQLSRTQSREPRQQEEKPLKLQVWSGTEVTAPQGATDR
Experimental: (§2) The PRESTO-Tango analyses were performed as previously published. Briefly, HTLA cells, a HEK293 cell line that stably expresses β-arrestin-TEV and tTA-Luciferase (a kind gift from Gilad Barnea, Brown University), were plated in 96-well tissue culture plates (Eppendorf) in DMEM containing 10% FBS and 1% Penicillin/Streptomycin. One day after plating (after reaching approximately 90% confluence), 200 ng per well GPCR-Tango plasmids[37] in 20 μL DMEM were individually mixed with 400 ng polyethylenimine (Polysciences) in an equal volume of DMEM and incubated for 20 min at room temperature before adding the transfection mixture to the HTLA cells. 16-24 h after transfection, medium was replaced with 180 μL fresh DMEM containing 1% Penicillin/Streptomycin and 10 mM HEPES and 20 μL of 3 or 3-Homo to reach a final concentration of 100 μM. Supernatants were aspirated 20 h after stimulation and 50 μl per well of Bright-Glo solution (Promega) diluted 20-fold with PBS containing 20 mM HEPES was added into each well. After 15 min incubation at room temperature, luminescence was quantified using a Spectramax i3x microplate reader (Molecular Devices). Activation fold for each sample was calculated by dividing relative luminescence units (RLU) for each condition by RLUs from PBS control. Dose response curves of each chemical were performed in a similar way with varying the ligand concentration from 10^−4 M to 10^−15 M.

[26] = target: T26, histamine receptor H4 (HRH4) (Homo sapiens, UniProt Q9H3N8); assay: PRESTO-Tango GPCR screen and dose-response; details: for HRH4 dose-response raw reporter signal (Fig. 5b source data): replicate wells
T26 construct: expressed in transfected cells; host or cells: HTLA cells (HEK293 line stably expressing β-arrestin-TEV and tTA-Luciferase)
T26 sequence (Q9H3N8 whole entry): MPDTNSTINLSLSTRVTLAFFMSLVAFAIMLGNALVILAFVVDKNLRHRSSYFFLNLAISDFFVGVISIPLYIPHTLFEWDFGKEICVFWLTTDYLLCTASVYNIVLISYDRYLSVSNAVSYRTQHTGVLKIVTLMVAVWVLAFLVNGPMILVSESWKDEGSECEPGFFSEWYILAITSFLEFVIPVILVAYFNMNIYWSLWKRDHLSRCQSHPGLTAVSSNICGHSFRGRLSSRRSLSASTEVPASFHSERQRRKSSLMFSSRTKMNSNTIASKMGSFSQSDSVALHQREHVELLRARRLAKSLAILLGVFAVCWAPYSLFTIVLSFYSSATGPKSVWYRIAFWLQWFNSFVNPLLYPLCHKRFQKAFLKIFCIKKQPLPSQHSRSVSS
Experimental: as §2

## CC(C)Cc1ncc(CCCCNC(=N)N)[nH]c1=O [3-Homo]
[1]
  GPCR activation (heatmap value): 0.5382
[2]
  GPCR activation (heatmap value): -0.4102
[3]
  GPCR activation (heatmap value): -0.1159
[4]
  GPCR activation (heatmap value): -0.0006117
[5]
  GPCR activation (heatmap value): -1.204
[6]
  GPCR activation (heatmap value): -0.6668
[7]
  GPCR activation (heatmap value): -0.2678
[8]
  GPCR activation (heatmap value): 0.3471
[9]
  GPCR activation (heatmap value): 0.4377
[10]
  GPCR activation (heatmap value): 0.09636
[11]
  GPCR activation (heatmap value): -0.9768
[12]
  GPCR activation (heatmap value): 0.9987
[13]
  GPCR activation (heatmap value): -0.5707
[14]
  GPCR activation (heatmap value): -0.0487
[15]
  GPCR activation (heatmap value): 0.7434
[16]
  GPCR activation (heatmap value): -0.9094
[17]
  GPCR activation (heatmap value): 0.2343
[18]
  GPCR activation (heatmap value): 0.1027
[19]
  GPCR activation (heatmap value): 0.09565
[20]
  GPCR activation (heatmap value): 0.5054
[21]
  GPCR activation (heatmap value): -0.2862
[22]
  GPCR activation (heatmap value): -0.3278
[23]
  GPCR activation (heatmap value): 0.1974
[24]
  GPCR activation (heatmap value): 0.2473
[25]; HRH2, 100 µM
  GPCR activation (heatmap value): 0.6697
[25]; Log(10)Conc (M) -4
  HRH2 dose-response raw reporter signal (Fig. 5b source data): 77 and 94 and 47
[25]; Log(10)Conc (M) -5
  HRH2 dose-response raw reporter signal (Fig. 5b source data): 50 and 38 and 83
[25]; Log(10)Conc (M) -6
  HRH2 dose-response raw reporter signal (Fig. 5b source data): 68 and 53 and 83
[25]; Log(10)Conc (M) -7
  HRH2 dose-response raw reporter signal (Fig. 5b source data): 59 and 65 and 91
[25]; Log(10)Conc (M) -8
  HRH2 dose-response raw reporter signal (Fig. 5b source data): 56 and 50 and 59
[25]; Log(10)Conc (M) -9
  HRH2 dose-response raw reporter signal (Fig. 5b source data): 44 (2×) and 59
[25]; Log(10)Conc (M) -10
  HRH2 dose-response raw reporter signal (Fig. 5b source data): 53 and 62 (2×)
[25]; Log(10)Conc (M) -11
  HRH2 dose-response raw reporter signal (Fig. 5b source data): 29 and 53 and 74
[25]; Log(10)Conc (M) -12
  HRH2 dose-response raw reporter signal (Fig. 5b source data): 50 and 65 and 53
[25]; Log(10)Conc (M) -13
  HRH2 dose-response raw reporter signal (Fig. 5b source data): 53 and 27 and 91
[25]; Log(10)Conc (M) -14
  HRH2 dose-response raw reporter signal (Fig. 5b source data): 41 and 77 and 68
[25]; Log(10)Conc (M) -15
  HRH2 dose-response raw reporter signal (Fig. 5b source data): 47 and 29 and 100
[26]; HRH4, 100 µM
  GPCR activation (heatmap value): 2.481
[26]; Log(10)Conc (M) -5
  HRH4 dose-response raw reporter signal (Fig. 5b source data): 18151 and 17815
[26]; Log(10)Conc (M) -6
  HRH4 dose-response raw reporter signal (Fig. 5b source data): 6385 and 6598
[26]; Log(10)Conc (M) -7
  HRH4 dose-response raw reporter signal (Fig. 5b source data): 1365 and 1430
[26]; Log(10)Conc (M) -8
  HRH4 dose-response raw reporter signal (Fig. 5b source data): 793 and 758
[26]; Log(10)Conc (M) -9
  HRH4 dose-response raw reporter signal (Fig. 5b source data): 522 and 575
[26]; Log(10)Conc (M) -10
  HRH4 dose-response raw reporter signal (Fig. 5b source data): 463 and 475
[26]; Log(10)Conc (M) -11
  HRH4 dose-response raw reporter signal (Fig. 5b source data): 357 and 469
[26]; Log(10)Conc (M) -12
  HRH4 dose-response raw reporter signal (Fig. 5b source data): 542 and 504
[26]; Log(10)Conc (M) -13
  HRH4 dose-response raw reporter signal (Fig. 5b source data): 404 and 363
[26]; Log(10)Conc (M) -14
  HRH4 dose-response raw reporter signal (Fig. 5b source data): 351 and 360
[26]; Log(10)Conc (M) -15
  HRH4 dose-response raw reporter signal (Fig. 5b source data): 333 and 448
[26]; PRESTO-Tango dose-response, n = 3, read-out: EC50 (HRH4 activation)
  EC50: 2700 nM
